Columns and labels:
[1] = test system: Phosphorylation of ERK1/2 in AsPC-1 cells; test: Phospho-ERK1/2 MSD Assay; type: cell-based; settings: Homo sapiens, ASPC1, 2 h, read-out: 2 h p-ERK (AsPC-1 cells), IC50 (μM), AsPC-1 cells, 2 h compound treatment
Outline: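 AsPC-1 cells in 10% FBS RPMI 1640 were treated with a compound dose titration for 2 h at 37° C, then lysed in RIPA buffer with protease and phosphatase inhibitors. Phospho-ERK1/2 was measured by MSD whole-cell lysate immunoassay, and IC50 was derived by 4-parameter logistic fit.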

[2] = biological target: GDP-bound KRAS protein (aa 1-169), G12D and C118A; SOS-mediated nucleotide exchange (Homo sapiens (Human), UniProt P01116, C118A/G12D); test: KRAS G12D Coupled Nucleotide Exchange Assay; type: biochemical; settings: 2 h compound pre-incubation, GTP, cRAF AlphaScreen
GDP-bound KRAS protein (aa 1-169), G12D and C118A; SOS-mediated nucleotide exchange, sequence (P01116 other isoform, or with tags, fused parts or gaps G12D/C118A): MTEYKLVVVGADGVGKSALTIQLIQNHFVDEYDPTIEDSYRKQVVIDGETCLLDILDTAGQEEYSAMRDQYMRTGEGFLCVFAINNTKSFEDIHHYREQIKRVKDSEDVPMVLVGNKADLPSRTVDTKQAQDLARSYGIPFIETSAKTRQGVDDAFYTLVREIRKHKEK
Outline: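 GDP-loaded KRAS (aa 1-169, G12D/C118A, N-His) preincubated 2 h with titrated compound in pH 7.4 HEPES/MgCl2/Triton buffer. SOS (aa 564-1049) plus GTP then added for 30 min. AlphaScreen readout; IC50 from 4-parameter logistic fit.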

[3] = biological target: His-tagged KRAS G12D protein (Homo sapiens (Human), UniProt P01116, G12D); test: KRAS G12D TR-FRET Assay; type: binding; settings: biotinylated KRPep-2d, 10 μM GDP
His-tagged KRAS G12D protein, sequence (P01116-2 other isoform, or with tags, fused parts or gaps G12D): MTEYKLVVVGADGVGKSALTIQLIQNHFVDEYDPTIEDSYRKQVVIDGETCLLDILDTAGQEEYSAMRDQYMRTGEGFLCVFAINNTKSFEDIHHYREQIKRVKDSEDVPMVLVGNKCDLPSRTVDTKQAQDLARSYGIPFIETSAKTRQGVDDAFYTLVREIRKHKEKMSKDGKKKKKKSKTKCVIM
Outline: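 His-KRAS G12D (20 nM working solution) preincubated with compound 30 min at rt in HEPES pH 7.4 buffer with 10 μM GDP, then biotinylated KRPep-2d added for 1 h. Eu-anti-His/streptavidin-d2 TR-FRET 665/615 ratio; IC50 from 4-parameter logistic fit.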

In the case of `N#Cc1c(N)sc2c(F)ccc(-c3c(Cl)cc4c(C5CC5)nc(OC[C@@]56CCCN5C[C@H](F)C6)nc4c3F)c12` [Example 71, 2-Amino-4-(6-chloro-4-cyclopropyl-8-fluoro-2-(((2R,7aS)-2-fluorotetrahydro-1H-pyrrolizin-7a(5H)-yl)methoxy)quinazolin-7-yl)-7-fluorobenzo[b]thiophene-3-carbonitrile bis(2,2,2-trifluoroacetate)], the IC50 [1] is reported as 0.185 µM, the IC50 [2] is reported as 5 nM and the IC50 [3] is reported as 11 nM.
